This is an account of results in patent publication US9624219B2, “Compound (S) and (R)-N-(2-fluoropyridin-4-yl)-3-methyl-2-(5-methyl-2,4-dioxo-1,2-dihydropyrido[3,4-d]pyrimidin-3(4H)-yl)butanamide and use” (GlaxoSmithKline Intellectual Property Development Limited, priority 2015, dated 2017).

Values after ≈ are worked out from the molar mass of the structure shown.

For one series, the system named is P. Falciparum Pf3D7A. Nature of the series: P. falciparum growth inhibition assay ([3H]hypoxanthine incorporation). Format: cell-based. To be noted: Plasmodium falciparum, 48 h, read-out: average Pf IC50. The method, then: P. falciparum Growth Inhibition Assay. The sensitivity of P. falciparum infected erythrocytes to the compound is determined in triplicate using the [^3H]hypoxanthine incorporation method with an inoculum of 0.5% parasitemia (ring stage) and 2% hematocrit. The parasites were grown in RPMI 1640 and supplemented with […] (or 10% serum). Plates are incubated at 37° C., 5% CO2, 5% O2, 90% N2. After 24 h of incubation, [^3H]hypoxanthine is added and plates are incubated for another 24 h. After that period, plates are harvested on a glass fiber filter using a TOMTEC Cell harvester 96. Filters are dried and melt on scintillator sheets and the bound radioactivity is quantified by use of a Wallac Microbeta Trilux (Model 1450 LS-Perkin Elmer). IC50s are determined using Grafit 5 program (Grafit program; Erithacus Software, Horley, Surrey, United Kingdom).

In series [1] the test system is Plasmodium falciparum Pf3D7^0087/N9. Nature of the series: P. falciparum in vivo efficacy assay (mouse model). Further details: species or system NODscidIL2Rγ^null mice engrafted with human erythrocytes. The note with it: interval of confidence 95%. On the procedure: P. falciparum In Vivo Efficacy Assay.
Antimalarial in vivo efficacy was determined using the P. falciparum mouse model following the procedure described in: Jimenez-Diaz, M. B., Mulet, T., Viera, S., Gómez, V., Garuti, H., Ibañez, J., Alvarez-Doval, A., Shlutz, D. L., Martinez, A., Improved Murine Model Of Malaria Using Plasmodium falciparum (Competent Strains and Non-Myelodepleted NOD-scid IL2R_null Mice Engrafted with Human Erythrocytes) Antimicrob. Agents Chemother 2009, 53 (10), 4533-4536.
The goal of this study is to assess the therapeutic efficacy of Example 1 against Plasmodium falciparum Pf3D7^0087/N9 growing in peripheral blood of NODscidIL2Rγ^null mice engrafted with human erythrocytes. The levels of Example 1 are measured in serial peripheral blood samples obtained from each mouse of the efficacy experiment during the first 23 hrs after the first dose. The area under the curve of levels of compound is used to estimate the exposure in blood during the first 23 hours after the first administration (AUC0-23h).
The effect of Example 1 on P. Falciparum Pf3D7^0087/N9 was assessed by microscopy and flow cytometry.

Series [2] can be described thus: Solubility assessment in FaSSIF (equilibrium solubility). The class given is physicochemical. To be noted: thermodynamic from solid, 4 hr at room temperature, LC-MS. The method, then: Solubility Assessment in FaSSIF
Organic solvents of HPLC grade were used. Ultra pure water (Milli-Q grade) was used. Buffers were prepared with ultra pure water and filtered using 0.45μ nylon filters.
Determination of Equilibrium Solubility (Assuming Chemical Stability in the Desired Solvent is not a Problem).
• a) 1 mg of solid compound was weighted in one 4 mL glass vial and 1 mL of FaSSIF was added. All these samples were prepared by duplicate. • b) The samples were stirred (roller mixer) for 4 hr at room temperature. If required, additional solid compound (0.1 mg) was added to maintain excess of it (saturated solutions). • c) After 4 hours, the samples were centrifuged (10000 rpm, 10 min.) and the supernatants were transfer to an HPLC vial and analysed by LC-MS (previous dilution with mobile phase when needed). • d) The pH of the final solution in each sample was measured with a pH-meter (WTW pH330i and a pH-electrode Sentix 41). LC-MS Assay for Analytical Quantification
All supernatants were analysed by LC-MS. Quantification of those samples was carried out against calibration curves obtained from 1 mg/mL DMSO (Aldrich cat. ref.: 27685-5) stock solutions, by dilution with the mobile phase used in the chromatography. Depending on the solubility range, U.V. (1 μg/mL to 100 μg/mL) or MS (1 μg/mL to 1 ng/mL) detector were used in the quantification. […]

A word on the IC50: it is the concentration needed to halve the response being measured. Broadly, the solubility is how much of the substance goes into solution per volume. Low readings indicate little dissolved substance, high ones much dissolved substance.

On to `Cc1cncc2[nH]c(=O)n([C@H](C(=O)Nc3ccnc(F)c3)C(C)C)c(=O)c12` [Example 1, (S)—N-(2-fluoropyridin-4-yl)-3-methyl-2-(5-methyl-2,4-dioxo-1,2-dihydropyrido[3,4-d]pyrimidin-3(4H)-yl)butanamide], for which the IC50 with P. Falciparum Pf3D7A came to 32 nM. Further, in series [1] (P. falciparum Pf3D7^0087/N9 in humanised NODscidIL2Rγnull mice), the “mean ED90” value is recorded as 0.53 mg/kg. Besides, in series [1] (blood exposure at ED90 (AUC0-23h after first dose), P. falciparum mouse model), the “mean AUCED90” value was 0.18 μg·h·mL-1·day-1. In series [2], this compound yielded a solubility at 4 h of 426 µg/mL (≈ 1150 µM).
